Assay results reported in patent US11224585B2, “Compositions containing omega-3 oil and uses thereof” (Maine Natural Health Company, Inc., priority 2010, dated 2022).

Key:
[1] = Absorption rate of ibuprofen in mice (tail vein samples); assay type: in vivo; settings: mouse, blood (tail vein samples), 25 mg/kg
Text: Additional experiments to test the absorption rate of the different omega-3 oil-containing pharmaceutical compositions described herein was illustrated in a mouse model.

[2] = test system: carrageenin-induced ear swelling mouse model; assay: Carrageenin-induced ear swelling mouse model of inflammation; settings: mice, ketoprofen 2 mg/kg, ear volume vs control mice, eight mice per treatment
[3] = test system: stomach lesions in fasted mice; settings: 10 mg/kg ketoprofen, one hour after administration, n = 8

Compound	Cmax [1] [ng/mL]	% of Inhibition of Inflammation [2] [%]	Average Lesions Score/Stomach [3]
CC(C)Cc1ccc(C(C)C(=O)O)cc1 (stereo not drawn) [Ibuprofen in saline, ibuprofen]	10000		
CC(C(=O)O)c1cccc(C(=O)c2ccccc2)c1 (stereo not drawn) [Ketoprofen in Saline, ketoprofen]		45	33
